Several values for one entry are separate records, joined by “and”; a condition that tells them apart may be missing. Equal values may be shown once. Read-outs that look alike come from different tables or passages of the source.
Conditions: for Recoverable rifampin after sterilization, Post EtO % / Recoverable rifampin after sterilization, Post e-beam % / Recoverable rifampin after sterilization, Post gamma % / Recoverable rifampin after sterilization, Post Steam %: relative to pre-sterilization (100%)
Procedure: Materials and Methods: Minocycline and rifampin were incorporated into discs, sheet stock and silicone boots and subjected to Steam, EtO, gamma radiation and e-beam sterilization as follows:
Each boot was cut into pieces (24) with scissors. The pieces were extracted together in a 60-125 ml jar w/top. All the pieces were placed in jar, and 4:1 THF/ethanol (50 mL for thick boots; 15 mL for thin boots) was added. The pieces were allowed to swell, and the drug is extracted for 1 hour (1st extraction). The extract was then collected and transferred to a 25-100 mL volumetric flask. A second 4:1 THF/ethanol (50 mL for thick boots w/holes; 10 mL for thin boots with holes) extraction was added to the jar, and the transfer pipette was rinsed with this second extract and discarded. The pieces were allowed to swell, and the drug is extracted for 1 hour (2nd extraction). The extract was then collected and transferred to the 25-100 mL volumetric flask containing the first extract. A small amount of extra solvent was needed to make up to volume due to solvent lost to evaporation and polymer swell. This amount also served as a final rinse of both the polymer and the transfer pipette.
Extraction Process—Sheet Stock
Discs was cut from the sheet stock with a die press. The discs were extracted separate in a 1 oz jar w/top. 4:1 THF/ethanol (5 mL) was added. The pieces were allowed to swell, and the drug is extracted for 1 hour (1st extraction). The extract was then collected and transferred to a 10 mL volumetric flask. A second 4:1 THF/ethanol (5 mL) extraction was added to the jar, and the transfer pipette was rinsed with this second extract and discarded. The pieces were allowed to swell, and the drug is extracted for 1 hour. (2nd extraction). The extract was then collected and transferred to the 10 mL volumetric flask containing the first extract. A small amount of extra solvent was needed to make up to 10 mL due to solvent lost to evaporation and polymer swell. This amount also served as a final rinse of both the polymer and the transfer pipette.
After extraction with THF/ethanol 4:1, extract was transferred to an HPLC vial and injected directly. The following high performance liquid chromatography (HPLC) method was used:
1. Chromatographic Conditions: • Instrument: Agilent 1100 stack • Column: Prodigy analytical column (150×4.6 mm) • Detection mode: UV detection at 238 nm • Flow rate: 1.0 mL/min • Column temperature: 25° C. • Injection volume: 10 uL • Mobile phase A: 1.4 g/L dibasic sodium phosphate buffer pH 6.8 • Mobile phase B: ACN 100%

CN(C)c1ccc(O)c2c1C[C@H]1C[C@H]3[C@H](N(C)C)C(O)=C(C(N)=O)C(=O)[C@@]3(O)C(O)=C1C2=O [minocycline]
Recoverable minocycline remaining after sterilization, Post Steam %: 0% | minocycline remaining with EtO sterilization: 86.8-100%

CO[C@H]1/C=C/O[C@@]2(C)Oc3c(C)c(O)c4c(O)c(c(/C=N/N5CCN(C)CC5)c(O)c4c3C2=O)NC(=O)/C(C)=C\C=C\[C@H](C)[C@H](O)[C@@H](C)[C@@H](O)[C@@H](C)[C@H](OC(C)=O)[C@@H]1C [rifampin]
rifampin remaining with EtO sterilization: 46.0-77.5% | Recoverable rifampin after sterilization, Post EtO % (medium 4735–0.005″ Sheet stock): 46.0% | Recoverable rifampin after sterilization, Post EtO % (medium 4735–0.015″ Sheet stock): 72.0% | Recoverable rifampin after sterilization, Post EtO % (medium 4850–0.005″ Boot): 65.4% | Recoverable rifampin after sterilization, Post EtO % (medium 4850–0.005″ Sheet Stock): 74.1% and 59.1% | Recoverable rifampin after sterilization, Post EtO % (medium 4850–0.015″ Boot): 77.5% | Recoverable rifampin after sterilization, Post EtO % (medium 4850–0.015″ Sheet Stock): 71.6% | Recoverable rifampin after sterilization, Post e-beam % (e-beam, medium 4735–0.015″ Boot): 90.2% | Recoverable rifampin after sterilization, Post e-beam % (e-beam, medium 4735–0.015″ Sheet stock): 95.1% and 92.4% | incorporated rifampin recovered after e-beam sterilization (e-beam, sheet stock, range): 92.4-95.1% | incorporated rifampin recovered after ethylene oxide sterilization (ethylene oxide, sheet stock incorporating minocycline and rifampin, range over the media tested): 46.0-74.1% | Recoverable rifampin after sterilization, Post gamma % (gamma radiation, medium 4735–0.005″ Sheet stock): 81.4% | Recoverable rifampin after sterilization, Post gamma % (gamma radiation, medium 4735–0.015″ Sheet stock): 82.8% and 88.6% | Recoverable rifampin after sterilization, Post gamma % (gamma radiation, medium 4850–0.005″ Sheet Stock): 71.5% | Recoverable rifampin after sterilization, Post gamma % (gamma radiation, medium 4850–0.015″ Sheet Stock): 78.4% | incorporated rifampin recovered after gamma radiation (gamma radiation, sheet stock, range over the media tested): 75.1-88.6% | Recoverable rifampin after sterilization, Post Steam % (steam sterilization, medium 4735–0.015″ Sheet stock): 34.3% | Recoverable rifampin after sterilization, Post Steam % (steam sterilization, medium 4850–0.005″ Sheet Stock): 19.5% | Recoverable rifampin after sterilization, Post Steam % (steam sterilization, medium 4850–0.015″ Sheet Stock): 28.3% | rifampin recoverable after steam sterilization (steam sterilization, silicone sheet stock, range over the media tested): 19.5 to 34.3%
